Calls of active or inactive are those of the source. The rule behind the calls is not given here.
Columns and labels:
[1] = molecular target: T1, von Hippel-Lindau disease tumor suppressor/Histone-lysine N-methyltransferase EHMT2 (Homo sapiens, UniProt Q96KQ7+P40337); assay: PROTAC activity at G9a/VHL in human 22Rv1 cells assessed as effect on G9a level upto 3 uM measured for 24 hrs by Western blot analysis; format: cell-based
[2] = molecular target: Histone-lysine N-methyltransferase SUV39H1 (Homo sapiens) (UniProt O43463); assay: Inhibition of SUV39H1 (unknown origin) at 10 uM relative to control
[3] = molecular target: T2, von Hippel-Lindau disease tumor suppressor/Histone-lysine N-methyltransferase EHMT1 (Homo sapiens, UniProt Q9H9B1+P40337); assay: PROTAC activity at GLP/VHL in human K562 cells assessed as induction of GLP degradation at 3 uM incubated for 24 hrs by Western blot analysis; format: cell-based
[4] = molecular target: Protein arginine N-methyltransferase 6 (Homo sapiens) (UniProt Q96LA8); assay: Inhibition of PRMT6 (unknown origin) at 10 uM relative to control
CWR22R [5] = assay: Cytotoxicity against human 22Rv1 cells assessed as growth inhibition measured for 7 days; format: functional; conditions: 22Rv1, 168 h, time 7 day
[6] = molecular target: Histone-lysine N-methyltransferase SUV39H2 (Homo sapiens) (UniProt Q9H5I1); assay: Inhibition of SUV39H2 (unknown origin) at 10 uM relative to control
[7] = molecular target: T1, von Hippel-Lindau disease tumor suppressor/Histone-lysine N-methyltransferase EHMT2; assay: PROTAC activity at G9a/VHL in human 22Rv1 cells assessed as induction of G9a degradation at 3 uM measured at 24 to 48 hrs by Western blot analysis; format: cell-based; conditions: time 24-48 hrs
[8] = molecular target: Histone-lysine N-methyltransferase SETD1B (Homo sapiens) (UniProt Q9UPS6); assay: Inhibition of SET1b (unknown origin) at 10 uM relative to control
[9] = molecular target: Protein arginine N-methyltransferase 8 (Homo sapiens) (UniProt Q9NR22); assay: Inhibition of PRMT8 (unknown origin) at 10 uM relative to control
[10] = molecular target: Histone-arginine methyltransferase CARM1 (Homo sapiens) (UniProt Q86X55); assay: Inhibition of PRMT4 (unknown origin) at 10 uM relative to control
CWR22R [11] = assay: Effect on PRMT7 level in human 22Rv1 cells at 3 uM incubated for 24 hrs by Western blot analysis; format: functional, cell-based
[12] = molecular target: T1, von Hippel-Lindau disease tumor suppressor/Histone-lysine N-methyltransferase EHMT2; assay: PROTAC activity at G9a/VHL in human 22Rv1 cells assessed as induction of G9a degradation at 3 uM measured at 4 hrs by Western blot analysis; format: cell-based
[13] = Cmax in C57BL6 mouse plasma at 50 mg/kg, ip measured at 0.5 hrs by LC-MS/MS analysis; format: ADME, organism-based
[14] = molecular target: Histone-lysine N-methyltransferase EZH2 (Homo sapiens) (UniProt Q15910); assay: Inhibition of EZH2 (unknown origin) at 10 uM relative to control
[15] = molecular target: T2, von Hippel-Lindau disease tumor suppressor/Histone-lysine N-methyltransferase EHMT1; assay: PROTAC activity at GLP/VHL in human 22Rv1 cells assessed as induction of GLP degradation at 3 uM measured at 4 hrs by Western blot analysis; format: cell-based
[16] = molecular target: Protein arginine N-methyltransferase 7 (Homo sapiens) (UniProt Q9NVM4); assay: Inhibition of PRMT7 (unknown origin) at 10 uM relative to control
NCI-H1299 = assay: Cytotoxicity against human NCI-H1299 cells assessed as growth inhibition incubated for 8 days; format: functional; conditions: NCI-H1299, 192 h, time 8 day
[17] = molecular target: Histone-lysine N-methyltransferase SMYD3 (Homo sapiens) (UniProt Q9H7B4); assay: Inhibition of SMYD3 (unknown origin) at 10 uM relative to control
[18] = molecular target: T2, von Hippel-Lindau disease tumor suppressor/Histone-lysine N-methyltransferase EHMT1; assay: PROTAC activity at GLP/VHL in human 22Rv1 cells assessed as induction of GLP degradation at 3 uM measured at 24 to 48 hrs by Western blot analysis; format: cell-based; conditions: time 24-48 hrs

T2 sequence (P40337 whole entry partner): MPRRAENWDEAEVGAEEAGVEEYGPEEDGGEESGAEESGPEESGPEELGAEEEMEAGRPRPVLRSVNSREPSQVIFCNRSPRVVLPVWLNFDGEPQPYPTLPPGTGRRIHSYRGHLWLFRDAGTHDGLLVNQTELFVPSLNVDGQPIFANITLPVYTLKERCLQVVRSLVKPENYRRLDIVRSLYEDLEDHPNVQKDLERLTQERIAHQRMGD
T2 sequence (Q9H9B1 2-1298 limits assumed): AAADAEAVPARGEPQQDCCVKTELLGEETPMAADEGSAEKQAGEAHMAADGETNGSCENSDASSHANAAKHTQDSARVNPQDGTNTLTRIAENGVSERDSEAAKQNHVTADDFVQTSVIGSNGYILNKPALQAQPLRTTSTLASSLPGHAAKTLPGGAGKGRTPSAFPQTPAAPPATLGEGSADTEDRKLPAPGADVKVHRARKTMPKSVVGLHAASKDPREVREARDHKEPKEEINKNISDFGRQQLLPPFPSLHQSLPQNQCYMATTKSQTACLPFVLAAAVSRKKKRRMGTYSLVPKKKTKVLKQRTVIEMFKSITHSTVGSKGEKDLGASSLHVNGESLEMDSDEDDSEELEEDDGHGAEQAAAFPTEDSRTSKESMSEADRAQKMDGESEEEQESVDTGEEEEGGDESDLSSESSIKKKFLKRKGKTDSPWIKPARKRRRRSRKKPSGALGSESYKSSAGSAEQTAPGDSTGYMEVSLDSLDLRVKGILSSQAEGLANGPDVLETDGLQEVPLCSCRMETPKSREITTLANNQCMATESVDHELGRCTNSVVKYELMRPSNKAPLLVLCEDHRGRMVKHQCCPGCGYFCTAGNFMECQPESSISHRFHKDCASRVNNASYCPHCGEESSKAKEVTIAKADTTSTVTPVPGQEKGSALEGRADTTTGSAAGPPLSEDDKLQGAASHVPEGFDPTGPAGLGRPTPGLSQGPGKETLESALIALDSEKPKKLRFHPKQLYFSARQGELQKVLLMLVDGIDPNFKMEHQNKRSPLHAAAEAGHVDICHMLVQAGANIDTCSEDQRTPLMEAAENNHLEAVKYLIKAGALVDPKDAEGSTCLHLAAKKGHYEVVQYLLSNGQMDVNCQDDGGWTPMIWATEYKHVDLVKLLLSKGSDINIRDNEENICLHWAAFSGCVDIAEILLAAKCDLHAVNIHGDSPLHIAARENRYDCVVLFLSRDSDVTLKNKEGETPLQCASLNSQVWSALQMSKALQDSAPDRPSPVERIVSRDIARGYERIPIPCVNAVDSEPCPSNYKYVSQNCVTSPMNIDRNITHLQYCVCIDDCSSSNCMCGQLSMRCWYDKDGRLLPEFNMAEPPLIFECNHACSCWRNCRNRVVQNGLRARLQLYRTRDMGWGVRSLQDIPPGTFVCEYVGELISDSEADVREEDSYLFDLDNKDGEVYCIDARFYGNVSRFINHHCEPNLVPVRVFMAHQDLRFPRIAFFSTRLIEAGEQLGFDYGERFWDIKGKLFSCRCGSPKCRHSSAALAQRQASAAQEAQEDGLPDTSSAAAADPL
T1 sequence (P40337 whole entry partner): as the sequence (P40337 whole entry partner) above
T1 sequence (Q96KQ7 2-1210 limits assumed): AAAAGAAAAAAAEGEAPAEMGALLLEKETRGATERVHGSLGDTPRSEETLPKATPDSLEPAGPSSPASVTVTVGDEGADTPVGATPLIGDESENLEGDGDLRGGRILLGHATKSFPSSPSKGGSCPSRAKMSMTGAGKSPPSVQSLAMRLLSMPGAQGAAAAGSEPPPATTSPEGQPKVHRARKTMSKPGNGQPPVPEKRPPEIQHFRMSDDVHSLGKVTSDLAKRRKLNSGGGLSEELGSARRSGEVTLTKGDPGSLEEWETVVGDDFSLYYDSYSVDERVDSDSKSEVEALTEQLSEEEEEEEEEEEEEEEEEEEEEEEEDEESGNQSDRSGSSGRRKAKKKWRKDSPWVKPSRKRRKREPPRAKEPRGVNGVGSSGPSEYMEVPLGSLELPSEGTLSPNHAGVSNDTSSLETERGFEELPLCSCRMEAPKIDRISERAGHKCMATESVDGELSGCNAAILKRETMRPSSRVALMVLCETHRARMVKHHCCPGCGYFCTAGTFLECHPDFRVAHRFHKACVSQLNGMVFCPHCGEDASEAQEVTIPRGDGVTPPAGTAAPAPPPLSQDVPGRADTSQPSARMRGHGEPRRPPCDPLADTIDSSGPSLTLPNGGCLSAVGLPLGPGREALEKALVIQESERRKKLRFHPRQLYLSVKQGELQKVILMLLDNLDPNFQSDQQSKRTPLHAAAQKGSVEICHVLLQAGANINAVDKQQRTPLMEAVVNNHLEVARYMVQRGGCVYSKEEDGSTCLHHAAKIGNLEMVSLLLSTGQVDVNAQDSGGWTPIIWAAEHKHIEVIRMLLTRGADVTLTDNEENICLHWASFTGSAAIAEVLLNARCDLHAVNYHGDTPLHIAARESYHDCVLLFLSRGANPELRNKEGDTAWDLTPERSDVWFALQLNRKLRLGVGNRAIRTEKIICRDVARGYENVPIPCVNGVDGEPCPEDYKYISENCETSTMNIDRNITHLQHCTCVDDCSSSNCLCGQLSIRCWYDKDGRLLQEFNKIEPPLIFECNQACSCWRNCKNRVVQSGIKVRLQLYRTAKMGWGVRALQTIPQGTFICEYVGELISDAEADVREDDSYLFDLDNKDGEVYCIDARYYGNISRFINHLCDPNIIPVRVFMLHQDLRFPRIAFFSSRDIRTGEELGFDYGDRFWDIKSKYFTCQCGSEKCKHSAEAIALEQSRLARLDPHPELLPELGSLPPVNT
Histone-lysine N-methyltransferase SETD1B (Homo sapiens), sequence (Q9UPS6 whole entry): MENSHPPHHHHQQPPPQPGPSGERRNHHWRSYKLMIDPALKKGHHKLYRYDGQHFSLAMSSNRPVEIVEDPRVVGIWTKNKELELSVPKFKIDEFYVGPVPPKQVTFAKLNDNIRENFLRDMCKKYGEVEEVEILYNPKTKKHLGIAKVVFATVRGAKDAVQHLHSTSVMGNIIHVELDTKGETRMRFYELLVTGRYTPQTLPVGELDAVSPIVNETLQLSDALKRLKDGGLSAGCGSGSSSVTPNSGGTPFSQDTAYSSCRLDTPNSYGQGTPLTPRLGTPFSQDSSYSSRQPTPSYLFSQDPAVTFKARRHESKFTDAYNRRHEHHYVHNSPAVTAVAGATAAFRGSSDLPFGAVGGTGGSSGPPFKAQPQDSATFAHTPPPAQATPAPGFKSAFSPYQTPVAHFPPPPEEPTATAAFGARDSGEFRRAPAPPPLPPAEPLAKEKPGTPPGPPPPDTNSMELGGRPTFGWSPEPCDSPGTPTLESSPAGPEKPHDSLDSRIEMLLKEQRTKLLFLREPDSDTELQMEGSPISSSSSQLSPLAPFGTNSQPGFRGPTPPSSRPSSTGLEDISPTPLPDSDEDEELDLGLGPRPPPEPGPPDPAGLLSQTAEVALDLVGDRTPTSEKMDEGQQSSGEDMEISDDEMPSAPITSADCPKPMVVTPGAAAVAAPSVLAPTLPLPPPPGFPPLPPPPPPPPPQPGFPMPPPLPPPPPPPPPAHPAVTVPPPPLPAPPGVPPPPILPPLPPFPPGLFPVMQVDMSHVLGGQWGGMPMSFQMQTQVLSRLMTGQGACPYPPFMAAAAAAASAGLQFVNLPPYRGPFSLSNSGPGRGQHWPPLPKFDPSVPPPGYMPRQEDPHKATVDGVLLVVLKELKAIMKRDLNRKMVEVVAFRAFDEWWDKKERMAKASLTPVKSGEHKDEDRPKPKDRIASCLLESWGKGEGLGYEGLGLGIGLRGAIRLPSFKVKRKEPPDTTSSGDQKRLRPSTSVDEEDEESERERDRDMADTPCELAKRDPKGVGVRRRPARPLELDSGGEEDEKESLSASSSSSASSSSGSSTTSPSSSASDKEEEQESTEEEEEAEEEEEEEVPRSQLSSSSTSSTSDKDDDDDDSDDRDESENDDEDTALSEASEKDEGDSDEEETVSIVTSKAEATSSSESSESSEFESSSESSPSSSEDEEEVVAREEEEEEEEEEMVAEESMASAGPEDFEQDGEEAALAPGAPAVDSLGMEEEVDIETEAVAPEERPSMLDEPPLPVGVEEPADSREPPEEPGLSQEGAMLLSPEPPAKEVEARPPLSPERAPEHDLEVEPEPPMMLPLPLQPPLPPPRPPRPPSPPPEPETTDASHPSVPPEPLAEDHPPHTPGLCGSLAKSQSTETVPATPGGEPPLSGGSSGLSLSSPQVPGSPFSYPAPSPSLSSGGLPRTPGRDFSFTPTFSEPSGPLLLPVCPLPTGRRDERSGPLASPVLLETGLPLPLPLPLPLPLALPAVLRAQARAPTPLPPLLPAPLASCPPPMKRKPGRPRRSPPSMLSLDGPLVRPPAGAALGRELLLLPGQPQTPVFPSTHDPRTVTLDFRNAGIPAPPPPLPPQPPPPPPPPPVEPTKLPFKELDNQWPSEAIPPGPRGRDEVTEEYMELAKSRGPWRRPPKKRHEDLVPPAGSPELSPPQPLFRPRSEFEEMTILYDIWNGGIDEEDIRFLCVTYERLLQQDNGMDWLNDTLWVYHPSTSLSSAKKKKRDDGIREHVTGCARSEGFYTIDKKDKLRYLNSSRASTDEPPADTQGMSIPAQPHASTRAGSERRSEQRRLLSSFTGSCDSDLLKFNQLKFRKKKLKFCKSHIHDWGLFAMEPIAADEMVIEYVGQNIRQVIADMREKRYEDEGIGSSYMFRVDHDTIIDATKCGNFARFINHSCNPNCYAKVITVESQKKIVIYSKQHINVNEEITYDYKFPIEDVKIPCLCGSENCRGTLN
Protein arginine N-methyltransferase 6 (Homo sapiens), sequence (Q96LA8 whole entry, looked up): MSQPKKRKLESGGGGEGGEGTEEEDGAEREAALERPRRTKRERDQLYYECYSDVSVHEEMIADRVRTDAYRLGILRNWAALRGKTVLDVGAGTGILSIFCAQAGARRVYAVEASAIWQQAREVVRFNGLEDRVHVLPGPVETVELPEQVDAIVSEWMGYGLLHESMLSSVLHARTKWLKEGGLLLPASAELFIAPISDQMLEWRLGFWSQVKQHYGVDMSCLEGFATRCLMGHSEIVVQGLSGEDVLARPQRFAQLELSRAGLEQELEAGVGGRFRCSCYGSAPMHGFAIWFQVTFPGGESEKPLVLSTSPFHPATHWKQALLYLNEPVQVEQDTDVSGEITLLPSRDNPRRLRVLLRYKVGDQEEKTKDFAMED

Activity [1]: Active
inhibition [2]: > 50%
Activity [3]: Active
inhibition [4]: > 50%
inhibition [6]: > 50%
Activity [7]: 100%
inhibition [8]: > 50%
inhibition [9]: > 50%
inhibition [10]: > 50%
Activity [12]: Active
Cmax [13]: 27 µM
inhibition [14]: > 50%
Activity [15]: Active
inhibition [16]: > 50%
inhibition [17]: > 50%
Activity [18]: 100%
SMILES: COc1cc2c(NC3CCN(CCCC(=O)NCCCCCCCCCCCC(=O)N[C@H](C(=O)N4C[C@H](O)C[C@H]4C(=O)NCc4ccc(-c5scnc5C)cc4)C(C)(C)C)CC3)nc(N3CCC(F)(F)CC3)nc2cc1OCCCN1CCCC1
GI50 (CWR22R [5]): 4.1 µM
Activity (CWR22R [11]): Active
GI50 (NCI-H1299): 5 µM
